Data published in patent US8663602B2, “Method for high-throughput screening of compounds and combinations of compounds for discovery and quantification of actions, particularly unanticipated therapeutic or toxic actions, in biological systems” (The Regents of the University of California, priority 2003, dated 2014).
Entries after “also recorded” stand apart in the source; their conditions may differ.

Key:
[1] = Food intake and body weight of mice on 2H2O; format: in vivo; conditions: 0.012 ml/gm injection then 4% 2H2O in drinking water
Experimental: Mice were injected with ^2H2O (deuterated water) 0.012 ml/gm. […] Twenty-one days following the start of ^2H2O administration, mice were fasted for four hours, anesthetized with isoflurane and exsanguinated via heart puncture.

[2] = Tolerability of maintained 2H2O body water enrichment; format: in vivo, humans; conditions: 1-10% of body water labeled, weeks or months; >100 people; rapid changes in enrichment prevented
Source text: Relatively high body water enrichments of ^2H2O (e.g., 1-10% of the total body water is labeled) may be achieved relatively inexpensively using the techniques of the invention. This water enrichment is relatively constant and stable as these levels are maintained for weeks or months in humans and in experimental animals without any evidence of toxicity. This finding in a large number of human subjects (>100 people) is contrary to previous concerns about vestibular toxicities at high doses of ^2H2O. The Applicant has discovered that as long as rapid changes in body water enrichment are prevented (e.g., by initial administration in small, divided doses), high body water enrichments of ^2H2O can be maintained with no toxicities. For example, the low cost of commercially available ^2H2O allows long-term maintenance of enrichments in the 1-5% range at relatively low expense (e.g., calculations reveal a lower cost for 2 months labeling at 2% ^2H2O enrichment, and thus 7-8% enrichment in the alanine precursor pool, than for 12 hours labeling of ^2H-leucine at 10% free leucine enrichment, and thus 7-8% enrichment in leucine precursor pool for that period).

[3] = Plasma liver enzymes in mice given griseofulvin; format: in vivo; conditions: 1% dose; data not shown
liver cell = assay: Liver cell proliferation in mice during griseofulvin administration (2H2O labeling); format: in vivo; conditions: 1% griseofulvin in chow (low dose, NOEL), 5 days
Experimental: Cell proliferation was measured as described, supra.

mammary epithelial cell = assay: Mammary epithelial cell (MEC) proliferation in intact and ovariectomized rats by 2H2O labeling, GC/MS; format: in vivo, Sprague-Dawley rats; conditions: for MEC proliferation: all doses, treated and labeled for 7 days, in the presence or absence of estrogen; for MEC proliferation rates: even the lowest dose; for mammary epithelial cell proliferation: intact female rats and ovariectomized rats, very low doses
neuroprogenitor cells = conditions: chronic exposure to LPS; Ekdahl et al. 2003; cited from earlier work
neurons = assay: Neuron turnover (fractional replacement) in mice by 2H2O labeling and GC/MS of DNA from isolated neurons; format: in vivo
Experimental: Groups of mice (n=5/group) were given a bolus of ^2H2O (Spectra Isotopes, Columbia, Md.) to 5% ^2H2O in body water and were given 8% ^2H2O as drinking water. Mice were maintained on ^2H2O for 45 days, during which period they also received injections every other day of either lipopolysaccharide (LPS) (Sigma, St. Louis, Mo.) in saline at a dose of 1 or 4 mg/kg body weight, or no injection.
Mice were euthanized with carbon dioxide, and their brains were removed. Hippocampi were dissected out, trypsinized, and stained with tetanus toxoid (Ttx), a specific marker for neurons, and then stained with a FITC labeled anti-Ttx antibody (Roche, Basel Switzerland). […]

adipocytes = assay: Adipocyte proliferation in ob/ob mice by 2H2O labeling of adipose cell DNA; format: in vivo; conditions: murine leptin 2 μg/day s.c. osmotic pump, 21 days 2H2O
Source text: Four week old, female, C57/bl6j mice (Jackson Labs Bar Harbor, […].) were studied: C57/bl6j ^+/? controls (con), ad libitum fed C57/bl6j^lep-/lep- (ob/ob), leptin treated ob/ob (ob-lep) and food restricted ob/ob (ob-r). Mice were housed individually in hanging wire cages and fed AIN 93 purified diets (Bio Serv, Frenchtown, N.J.). Mice were given 3 days to acclimate to the environment, after which mice grew normally. All treatments and interventions began 5 days prior to the start of labeling with ^2H2O.
Ob-lep mice received murine leptin subcutaneously at a dose of 2 μg/day (Amgen, Thousand Oaks Calif.) via a 28 day Alzet mini osmotic pump (Alza Corp. Palo Alto Calif.).
Mice were injected with ^2H2O (deuterated water) 0.012 ml/gm. […]
The frozen slurry of adipocytes was lyophilized, the dry weight of the sample was determined and then the samples were digested and DNA isolated as described elsewhere (Neese, R. A. et al. Advances in the Stable Isotope-Mass Spectrometric Measurement of DNA Synthesis and Cell Proliferation. Anal Biochem 298, 189-195. (2001)) using Quiagen DNeasy tissue kits. The yield of DNA from each sample was determined with a Pharmacia Biotec Genequant II spectrophotometer. […]
PTA samples were analyzed for incorporation of deuterium on a HP model 5973 MS with a 6890 GC and auto-sampler (Agilent, Palo Alto, Calif.). […]

## [2H]O[2H] [^2H2O, deuterated water]
[1]
  food intake or body weight: no impact on food intake or body weight
[2]
  toxicity of maintained body water enrichment: no toxicities

## COC1=CC(=O)C[C@@H](C)[C@]12Oc1c(Cl)c(OC)cc(OC)c1C2=O [griseofulvin]
[3]
  plasma liver enzymes: did not induce elevated levels of plasma liver enzymes
Liver cell
  liver cell proliferation: increased liver cell proliferation

## O=C(c1ccc(OCCN2CCCCC2)cc1)c1c(-c2ccc(O)cc2)sc2cc(O)ccc12 [raloxifene]
Mammary epithelial cell
  MEC proliferation: Significant reductions of MEC proliferation
  MEC proliferation rates: efficacious anti-proliferative agents
  mammary epithelial cell proliferation: decrease in mammary epithelial cell proliferation

## CC/C(=C(\c1ccccc1)c1ccc(OCCN(C)C)cc1)c1ccccc1 [tamoxifen]
Mammary epithelial cell
  MEC proliferation: Significant reductions of MEC proliferation
  MEC proliferation rates: efficacious anti-proliferative agents
  mammary epithelial cell proliferation: decrease in mammary epithelial cell proliferation

## lipopolysaccharide [LPS]
Neuroprogenitor cells
  neurogenesis: neurogenesis was observed to decrease
neurons; LPS 1 or 4 mg/kg injected every other day, 45 days with 2H2O, vs control, p<0.05, dose dependent
  neuron turnover (fractional replacement of neurons): statistically significant increase in neuron turnover; also recorded: turnover more rapidly
neurons; after exposure to LPS, control approximately 7%
  calculated fractional synthesis rate (f) of new neurons: ~14%

B1: leptin: murine leptin (Amgen) given subcutaneously via osmotic pump (protein, UniProt P41160 22-167, looked up)
Leptin: VPIQKVQDDTKTLIKTIVTRINDISHTQSVSAKQRVTGLDFIPGLHPILSLSKMDQTLAVYQQVLTSLPSQNVLQIANDLENLRDLLHLLAFSKSCSLPQTSGLQKPESLDGVLEASLYSTEVVALSRLQGSLQDILQQLDVSPEC
adipocytes
  adipocyte proliferation (fat cell proliferation): decrease in adipocyte proliferation
